Key:
Assay in all cases: combination Emax (second highest fraction inhibited in the dose matrix, 72 h); higher = more inhibition; extreme values may be limits of the assay
[1] = system: FTC-133 (Thyroid Gland Carcinoma)
How it was run: (§1)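 Cell lines in DMEM/F12 or RPMI with 10% FBS were plated in 1536-well plates, held 24 hours at 37°C, 5% CO2, then given two-drug dose matrices for 72 hours (DMSO typically 0.2%). Viability was read by CellTiter-Glo 2.0 luminescence and scaled as inhibition from 0 (vehicle wells) to 1 (blank wells). Combination Emax is the second-highest inhibition in the matrix; Bliss excess is observed combination effect minus expected EA + EB − EA·EB, EA and EB being single-agent effects.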

[2] = system: NUGC-4 (Gastric Carcinoma)
How it was run: as §1

[3] = system: SW1573 (Lung Adenocarcinoma)
How it was run: as §1

[4] = system: NCI-H209 (Small Cell Lung Carcinoma)
How it was run: as §1

MPP-89 (Mesothelioma) = system: MPP-89 (Mesothelioma)
How it was run: as §1

A673 (Ewing's Sarcoma) = system: A673 (Ewing's Sarcoma)
How it was run: as §1

[5] = system: KMRC-20 (Kidney Carcinoma)
How it was run: as §1

BPH-1 (Non-Cancerous) = system: BPH-1 (Non-Cancerous)
How it was run: as §1

[6] = system: HH (T-Cell Non-Hodgkin's Lymphoma)
How it was run: as §1

[7] = system: YAPC (Pancreatic Carcinoma)
How it was run: as §1

[8] = system: NCI-H1568 (Lung Adenocarcinoma)
How it was run: as §1

[9] = system: Detroit562 (Head and Neck Carcinoma)
How it was run: as §1

[10] = system: OVCAR-5 (Ovarian Carcinoma)
How it was run: as §1

NCI-H2052 (Mesothelioma) = system: NCI-H2052 (Mesothelioma)
How it was run: as §1

[11] = system: HuH-7 (Hepatocellular Carcinoma)
How it was run: as §1

[12] = system: HuCCT1 (Biliary Tract Carcinoma)
How it was run: as §1

CAL-72 (Osteosarcoma) = system: CAL-72 (Osteosarcoma)
How it was run: as §1

[13] = system: ESS-1 (Other Solid Carcinomas)
How it was run: as §1

BE2-M17 (Neuroblastoma) = system: BE2-M17 (Neuroblastoma)
How it was run: as §1

Compound | combination Emax [1] | combination Emax [2] | combination Emax [3] | combination Emax [4] | combination Emax (MPP-89 (Mesothelioma)) | combination Emax (A673 (Ewing's Sarcoma)) | combination Emax [5] | combination Emax (BPH-1 (Non-Cancerous)) | combination Emax [6] | combination Emax [7] | combination Emax [8] | combination Emax [9] | combination Emax [10] | combination Emax (NCI-H2052 (Mesothelioma)) | combination Emax [11] | combination Emax [12] | combination Emax (CAL-72 (Osteosarcoma)) | combination Emax [13] | combination Emax (BE2-M17 (Neuroblastoma))
CN(C)CCCOc1ccc(-c2ccc3ncc4c(c3c2)n(C2CCOCC2)c(=O)n4C)cn1 [AZD0156] + C=CCn1c(=O)c2cnc(Nc3ccc(N4CCN(C)CC4)cc3)nc2n1-c1cccc(C(C)(C)O)n1 [AZD1775] (first compound max 1 µM, partner max 1 µM) | 0.536 | 0.273 | 0.268 | 0.84 | 0.522 | 0.564 | 0.596 | 0.457 | 0.442 | 0.251 | 0.419 | 0.606 | 0.347 | 0.376 | 0.262 | 0.717 | 0.778 | 0.973 | 0.57
CN(C)CCCOc1ccc(-c2ccc3ncc4c(c3c2)n(C2CCOCC2)c(=O)n4C)cn1 [AZD0156] + CCN(CCO)CCCOc1ccc2c(Nc3cc(CC(=O)Nc4cccc(F)c4)[nH]n3)ncnc2c1 [AZD2811] (first compound max 1 µM, 7x7, partner max 1 µM) | 0.284 | 0.0855 | 0.168 | 0.552 | 0.105 | 0.75 | 0.128 | 0.459 | 0.151 | 0.137 | 0.131 | 0.75 | 0.137 | 0.284 | 0.0893 | 0.137 | 0.286 | 0.606 | 0.411
CN(C)CCCOc1ccc(-c2ccc3ncc4c(c3c2)n(C2CCOCC2)c(=O)n4C)cn1 [AZD0156] + C[C@@H]1COCCN1C2=NC(=NC(=C2)C3(CC3)[S@](=N)(=O)C)C4=C5C=CNC5=NC=C4 [AZD6738] (first compound max 1 µM, 7x7, partner max 10 µM) | 0.666 | 0.639 | 0.196 | 0.854 | 0.63 | 0.907 | 0.65 | 0.427 | 0.427 | 0.294 | 0.49 | 0.88 | 0.756 | 0.399 | 0.325 | 0.796 | 0.889 | 0.989 | 0.928
C=CCn1c(=O)c2cnc(Nc3ccc(N4CCN(C)CC4)cc3)nc2n1-c1cccc(C(C)(C)O)n1 [AZD1775] + C[C@@H]1COCCN1C2=NC(=NC(=C2)C3(CC3)[S@](=N)(=O)C)C4=C5C=CNC5=NC=C4 [AZD6738] (first compound max 1 µM, partner max 10 µM) | 0.766 | 0.593 | 0.476 | 0.944 | 0.737 | 0.907 | 0.763 | 0.588 | 0.583 | 0.492 | 0.487 | 0.902 | 0.782 | 0.488 | 0.487 | 0.861 | 0.93 | 1 | 0.957
C=CCn1c(=O)c2cnc(Nc3ccc(N4CCN(C)CC4)cc3)nc2n1-c1cccc(C(C)(C)O)n1 [AZD1775] + O=C(c1cc(Cc2n[nH]c(=O)c3ccccc23)ccc1F)N1CCN(C(=O)C2CC2)CC1 [Olaparib] (first compound max 1 µM, partner max 10 µM) | 0.602 | 0.302 | 0.317 | 0.922 | 0.508 | 0.822 | 0.567 | 0.488 | 0.443 | 0.432 | 0.422 | 0.669 | 0.447 | 0.467 | 0.304 | 0.818 | 0.756 | 1 | 0.462
CCN(CCO)CCCOc1ccc2c(Nc3cc(CC(=O)Nc4cccc(F)c4)[nH]n3)ncnc2c1 [AZD2811] + C=CCn1c(=O)c2cnc(Nc3ccc(N4CCN(C)CC4)cc3)nc2n1-c1cccc(C(C)(C)O)n1 [AZD1775] (first compound max 1 µM, partner max 1 µM) | 0.685 | 0.227 | 0.283 | 0.879 | 0.511 | 0.708 | 0.6 | 0.679 | 0.293 | 0.408 | 0.429 | 0.828 | 0.273 | 0.38 | 0.132 | 0.739 | 0.728 | 1 | 0.618
CCN(CCO)CCCOc1ccc2c(Nc3cc(CC(=O)Nc4cccc(F)c4)[nH]n3)ncnc2c1 [AZD2811] + C[C@@H]1COCCN1C2=NC(=NC(=C2)C3(CC3)[S@](=N)(=O)C)C4=C5C=CNC5=NC=C4 [AZD6738] (first compound max 1 µM, 7x7, partner max 10 µM) | 0.688 | 0.547 | 0.266 | 0.913 | 0.646 | 0.852 | 0.596 | 0.4 | 0.179 | 0.288 | 0.397 | 0.913 | 0.698 | 0.359 | 0.293 | 0.773 | 0.843 | 0.97 | 0.741
CCN(CCO)CCCOc1ccc2c(Nc3cc(CC(=O)Nc4cccc(F)c4)[nH]n3)ncnc2c1 [AZD2811] + O=C(c1cc(Cc2n[nH]c(=O)c3ccccc23)ccc1F)N1CCN(C(=O)C2CC2)CC1 [Olaparib] (first compound max 1 µM, 7x7, partner max 10 µM) | 0.223 | 0.21 | 0.221 | 0.971 | 0.189 | 0.841 | 0.24 | 0.566 | 0.0537 | 0.147 | 0.164 | 0.702 | 0.184 | 0.184 | 0.174 | 0.25 | 0.322 | 0.63 | 0.354
C[C@@H]1COCCN1c1cc(C2([S@](C)(=N)=O)CC2)nc(-c2ccnc3[nH]ccc23)n1 [AZD6738] + O=C(c1cc(Cc2n[nH]c(=O)c3ccccc23)ccc1F)N1CCN(C(=O)C2CC2)CC1 [Olaparib] (first compound max 10 µM, 7x7, partner max 10 µM) | 0.672 | 0.551 | 0.217 | 0.94 | 0.619 | 0.89 | 0.542 | 0.51 | 0.209 | 0.288 | 0.416 | 0.862 | 0.515 | 0.478 | 0.357 | 0.784 | 0.8 | 0.979 | 0.74
COc1cccc2c1C(=O)c1c(O)c3c(c(O)c1C2=O)C[C@@](O)(C(=O)CO)C[C@@H]3O[C@H]1C[C@H](N)[C@H](O)[C@H](C)O1 [Doxorubicin] + Cc1cc2ncnn2cc1Nc1ncc2c(n1)n(C1CCOCC1)c(=O)n2C [AZD7648] (first compound max 1 µM, 7x7, partner max 10 µM) | 0.92 | 0.393 | 0.533 | 0.993 | 0.734 | 0.888 | 0.524 | 0.951 | 0.297 | 0.381 | 0.197 | 0.681 | 0.587 | 0.745 | 0.23 | 0.746 | 0.663 | 1 | 0.862
CS(=O)(=O)CCNCc1ccc(-c2ccc3ncnc(Nc4ccc(OCc5cccc(F)c5)c(Cl)c4)c3c2)o1 [Lapatinib] + NC1(c2ccc(-c3nc4ccn5c(=O)[nH]nc5c4cc3-c3ccccc3)cc2)CCC1 [MK-2206] (first compound max 10 µM, 7x7, partner max 10 µM) |  |  |  |  | 0.152 | 0.363 |  |  | 0.451 | 0.356 |  |  | 0.787 | 0.515 |  | 0.893 | 0.89 | 0.96 | 
COc1cccc(OCCCN)c1-c1cc(Nc2cnc(C#N)cn2)n[nH]1 [Prexasertib] + C=CCn1c(=O)c2cnc(Nc3ccc(N4CCN(C)CC4)cc3)nc2n1-c1cccc(C(C)(C)O)n1 [AZD1775] (first compound max 1 µM, partner max 1 µM) | 0.858 | 0.555 | 0.582 | 0.988 | 0.826 | 0.946 | 0.885 | 0.809 | 0.742 | 0.669 | 0.563 | 0.949 | 0.838 | 0.699 | 0.438 | 0.827 | 0.891 | 1 | 0.998
COc1cccc(OCCCN)c1-c1cc(Nc2cnc(C#N)cn2)n[nH]1 [Prexasertib] + CN(C)CCCOc1ccc(-c2ccc3ncc4c(c3c2)n(C2CCOCC2)c(=O)n4C)cn1 [AZD0156] (first compound max 1 µM, 7x7, partner max 1 µM) | 0.805 | 0.49 | 0.201 | 0.94 | 0.724 | 0.905 | 0.924 | 0.235 | 0.703 | 0.559 | 0.538 | 0.922 | 0.838 | 0.556 | 0.347 | 0.819 | 0.847 | 1 | 0.983
CCc1c2c(nc3ccc(O)cc13)-c1cc3c(c(=O)n1C2)COC(=O)[C@]3(O)CC [SN-38] + O=C(c1cc(Cc2n[nH]c(=O)c3ccccc23)ccc1F)N1CCN(C(=O)C2CC2)CC1 [Olaparib] (first compound max 0.3 µM, 7x7, partner max 10 µM) |  |  |  |  | 0.646 | 1 |  | 0.963 | 0.103 | 0.646 |  |  | 0.637 |  |  | 0.662 | 0.708 | 1 | 0.89

— the supplement of paper PMC11061612
